Data reported in patent publication US12552793B2, “Purine derivative and medical use thereof” (KANGBAIDA (SICHUAN) BIOTECHNOLOGY CO., LTD., priority 2019, dated 2026).
pIC50: −log10 of the molar value.

biological target: T1, DNA-PK kinase (Homo sapiens (Human), UniProt P78527); assay: not given
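Note: enzyme inhibition of DNA-PK with kinase activity read out by chemiluminescence on a microplate reader after adding a kinase detection reagent.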

Row | Compound | pIC50
1 | Cc1cc(C#N)ccc1Nc1ncc2c(n1)n(C1C3CC4CC1CC(O)(C4)C3)c(=O)n2C (single isomer, unassigned) [Compound 13-2, 4-((9-(5-Hydroxyadamantan-2-yl)-7-methyl-8-oxo-8,9-dihydro-7H-purin-2-yl)amino)-3-methylbenzonitrile] | 7.28
2 | Cc1cc2ncnn2cc1Nc1ncc2c(n1)n(C13CC4CC(C1)C(C#N)C(C4)C3)c(=O)n2C (single isomer, unassigned) [Compound 21-2, 5-(7-Methyl-2-((7-methyl-[1,2,4]triazolo[1,5-a]pyridin-6-yl)amino)-8-oxo-7,8-dihydro-9H-purin-9-yl)adamantane-2-carbonitrile] | 10.00
3 | COC1(OC)C2CC3CC1CC(n1c(=O)n(C)c4cnc(Nc5cc6c(cc5C)OCC6)nc41)(C3)C2 [Compound 31, 9-(4,4-Dimethoxyadamantan-1-yl)-7-methyl-2-((6-methyl-2,3-dihydrobenzofuran-5-yl)amino)-7,9-dihydro-8H-purin-8-one] | 10.00
4 | Cc1cc2ncccc2cc1Nc1ncc2c(n1)n(C13CC4CC(CC(O)(C4)C1)C3)c(=O)n2C [Compound 2, 9-(3-Hydroxyadamantan-1-yl)-7-methyl-2-((7-methylquinolin-6-yl)amino)-7,9-dihydro-8H-purin-8-one] | 11.00
5 | Cc1cc2ncnn2cc1Nc1ncc2c(n1)n(C13CC4CC(CC(C(N)=O)(C4)C1)C3)c(=O)n2C [Compound 5, 3-(7-Methyl-2-[(7-methyl-[1,2,4]triazolo[1,5-a]pyridin-6-yl)amino]-8-oxo-8,9-dihydro-7H-purin-9-yl)adamantane-1-carboxamide] | 8.41
6 | Cc1cc2ncnn2cc1Nc1ncc2[nH]c(=O)n(C34CC5CC(CC(O)(C5)C3)C4)c2n1 [Compound 36, 9-(3-Hydroxyadamantan-1-yl)-2-((7-methyl-[1,2,4]triazolo[1,5-a]pyridin-6-yl)amino)-7,9-dihydro-8H-purin-8-one] | 9.49
7 | Cc1cc2ncnn2cc1Nc1ncc2c(n1)n(C13CC4CC(CC(C(=O)OC(C)(C)C)(C4)C1)C3)c(=O)n2C [Compound 3, tert-Butyl-3-(7-methyl-2-[(7-methyl-[1,2,4]triazolo[1,5-a]pyridin-6-yl)amino]-8-oxo-8,9-dihydro-7H-purin-9-yl)adamantane-1-carboxylate] | 7.83
8 | Cc1cc(C(N)=O)c(F)cc1Nc1ncc2c(n1)n(C13CC4CC(C1)C(C#N)C(C4)C3)c(=O)n2C (single isomer, unassigned) [Compound 24-2, 4-((9-(4-Cyanoadamantan-1-yl)-7-methyl-8-oxo-8,9-dihydro-7H-purin-2-yl)amino)-2-fluoro-5-methylbenzamide] | 8.08
9 | Cc1cc2ncnn2cc1Nc1ncc2c(n1)n(C1C3CC4CC1CC(C#N)(C4)C3)c(=O)n2C (single isomer, unassigned) [Compound 28-2, 4-(7-Methyl-2-((7-methyl-[1,2,4]triazolo[1,5-a]pyridin-6-yl)amino)-8-oxo-7,8-dihydro-9H-purin-9-yl)adamantane-1-carbonitrile] | 10.00
10 | Cc1cc2c(cc1Nc1ncc3c(n1)n(C14CC5CC(C1)C(=O)C(C5)C4)c(=O)n3C)CCO2 [Compound 30, 7-Methyl-2-((6-methyl-2,3-dihydrobenzofuran-5-yl)amino)-9-(4-oxoadamantan-1-yl)-7,9-dihydro-8H-purin-8-one] | 10.10
11 | Cc1cc(C#N)ccc1Nc1ncc2c(n1)n(C1C3CC4CC1CC(O)(C4)C3)c(=O)n2C (single isomer, unassigned) [Compound 13-1, 4-((9-(5-Hydroxyadamantan-2-yl)-7-methyl-8-oxo-8,9-dihydro-7H-purin-2-yl)amino)-3-methylbenzonitrile] | 9.17
12 | Cc1cc2ncnn2cc1Nc1ncc2c(n1)n(C1C3CC4CC1CC(C#N)(C4)C3)c(=O)n2C (single isomer, unassigned) [Compound 28-1, 4-(7-Methyl-2-((7-methyl-[1,2,4]triazolo[1,5-a]pyridin-6-yl)amino)-8-oxo-7,8-dihydro-9H-purin-9-yl)adamantane-1-carbonitrile] | 9.12
13 | Cc1cc(C(N)=O)c(F)cc1Nc1ncc2c(n1)n(C13CC4CC(C1)C(C#N)C(C4)C3)c(=O)n2C (single isomer, unassigned) [Compound 24-1, 4-((9-(4-Cyanoadamantan-1-yl)-7-methyl-8-oxo-8,9-dihydro-7H-purin-2-yl)amino)-2-fluoro-5-methylbenzamide] | 9.18
14 | Cc1cc2ncnn2cc1Nc1ncc2c(n1)n(C13CC4CC(C1)C(C#N)C(C4)C3)c(=O)n2C (single isomer, unassigned) [Compound 21-1, 5-(7-Methyl-2-((7-methyl-[1,2,4]triazolo[1,5-a]pyridin-6-yl)amino)-8-oxo-7,8-dihydro-9H-purin-9-yl)adamantane-2-carbonitrile] | 11.00
15 | Cc1cc2ncnn2cc1Nc1ncc2c(n1)n(C13CC4CC(CC(C(=O)O)(C4)C1)C3)c(=O)n2C [Compound 4, 3-(7-Methyl-2-((7-methyl-[1,2,4]triazolo[1,5-a]pyridin-6-yl)amino)-8-oxo-7,8-dihydro-9H-purin-9-yl)adamantane-1-carboxylic acid] | 9.35
16 | Cc1cc(C(N)=O)c(F)cc1Nc1ncc2c(n1)n(C1C3CC4CC1CC(O)(C4)C3)c(=O)n2C (single isomer, unassigned) [2-Fluoro-4-((9-(5-hydroxyadamantan-2-yl)-7-methyl-8-oxo-8,9-dihydro-7H-purin-2-yl)amino)-5-methylbenzamide] | 9.32
17 | Cc1cc2ncnn2cc1Nc1ncc2c(n1)n(C13CC4CC(C1)C(=O)C(C4)C3)c(=O)n2C [Compound 19, 7-Methyl-2-((7-methyl-[1,2,4]triazolo[1,5-a]pyridin-6-yl)amino)-9-(4-oxoadamantan-1-yl)-7,9-dihydro-8H-purin-8-one] | 10.52
18 | Cn1c(=O)n(C23CC4CC(CC(O)(C4)C2)C3)c2nc(Nc3cc4c(cc3Cl)OCC4)ncc21 [Compound 33, 2-((6-Chloro-2,3-dihydrobenzofuran-5-yl)amino)-9-(3-hydroxyadamantan-1-yl)-7-methyl-7,9-dihydro-8H-purin-8-one] | 8.19
19 | COC12CC3CC(C1)CC(n1c(=O)n(C)c4cnc(Nc5cn6ncnc6cc5C)nc41)(C3)C2 [Compound 11, 9-(3-Methoxyadamantan-1-yl)-7-methyl-2-((7-methyl-[1,2,4]triazolo[1,5-a]pyridin-6-yl)amino)-7,9-dihydro-8H-purin-8-one] | 10.00
20 | Cc1cc(C(N)=O)c(F)cc1Nc1ncc2c(n1)n(C13CC4CC(CC(O)(C4)C1)C3)c(=O)n2C [Compound 22, 2-Fluoro-4-((9-(3-hydroxyadamantan-1-yl)-7-methyl-8-oxo-8,9-dihydro-7H-purin-2-yl)amino)-5-methylbenzamide] | 11.00
21 | Cc1cc2ncnn2cc1Nc1ncc2c(n1)n(C13CC4CC(CC(C(=O)N5CCOCC5)(C4)C1)C3)c(=O)n2C [Compound 9, 7-Methyl-2-[(7-methyl-[1,2,4]triazolo[1,5-a]pyridin-6-yl)amino]-9-[3-(morpholine-4-carbonyl)adamantan-1-yl]-8,9-dihydro-7H-purin-8-one] | 8.96
22 | CCOC(=O)C12CC3CC(C1)CC(n1c(=O)n(C)c4cnc(Nc5cn6ncnc6cc5C)nc41)(C3)C2 [Compound 7, Ethyl-3-(7-methyl-2-[(7-methyl-[1,2,4]triazolo[1,5-a]pyridin-6-yl)amino]-8-oxo-8,9-dihydro-7H-purin-9-yl)adamantane-1-carboxylate] | 11.00
23 | Cc1cc(C(N)=O)c(F)cc1Nc1ncc2c(n1)n(C1C3CC4CC1CC(O)(C4)C3)c(=O)n2C (single isomer, unassigned) [Compound 27-1, 2-Fluoro-4-((9-(5-hydroxyadamantan-2-yl)-7-methyl-8-oxo-8,9-dihydro-7H-purin-2-yl)amino)-5-methylbenzamide] | 7.98
24 | Cc1cc2ncnn2cc1Nc1ncc2c(n1)n(C13CC4CC(CC(N)(C4)C1)C3)c(=O)n2C [Compound 10, 7-Methyl-2-[(7-methyl-[1,2,4]triazolo[1,5-a]pyridin-6-yl)amino]-9-[3-aminoadamantan-1-yl]-8,9-dihydro-7H-purin-8-one] | 8.65
25 | Cc1cc(C(N)=O)c(F)cc1Nc1ncc2c(n1)n(C13CC4CC(CC(C#N)(C4)C1)C3)c(=O)n2C [Compound 34, 4-((9-(3-Cyanoadamantan-1-yl)-7-methyl-8-oxo-8,9-dihydro-7H-purin-2-yl)amino)-2-fluoro-5-methylbenzamide] | 8.12
26 | Cc1cc(C(N)=O)c(F)cc1Nc1ncc2c(n1)n(C13CC4CC(C1)C(=O)C(C4)C3)c(=O)n2C [Compound 25, 2-Fluoro-5-methyl-4-((7-methyl-8-oxo-9-(4-oxoadamantan-1-yl)-8,9-dihydro-7H-purin-2-yl)amino)benzamide] | 11.00
27 | Cc1cc2c(cc1Nc1ncc3c(n1)n(C14CC5CC(CC(O)(C5)C1)C4)c(=O)n3C)CCO2 [Compound 32, 9-(3-Hydroxyadamantan-1-yl)-7-methyl-2-((6-methyl-2,3-dihydrobenzofuran-5-yl)amino)-7,9-dihydro-8H-purin-8-one] | 8.64
28 | Cc1cc2ncnn2cc1Nc1ncc2c(n1)n(C13CC4CC(CC(CO)(C4)C1)C3)c(=O)n2C [Compound 8, 7-Methyl-2-[(7-methyl-[1,2,4]triazolo[1,5-a]pyridin-6-yl)amino]-9-[3-(hydroxymethyl)adamantan-1-yl]-8,9-dihydro-7H-purin-8-one] | 11.00

biological target: T1, DNA-PK kinase; assay: biochemical
Method: Inhibition of DNA-PK Kinase
The inhibitory activity of the compounds against DNA-PK kinase was determined using a DNA-PK kinase assay kit (purchased from Promega, Cat. No. V4107, Batch No. 0000366495). The results were quantified using chemiluminescence, specifically as follows: • i. ADP-fluorescence standard curves at different concentrations were constructed according to the instructions of the kit; • ii. reaction systems (5 L) were prepared in a 384-well white plate; 1 μL of a compound (concentration gradients 1 μM, 200 nM, 40 nM, 8 nM, 1.6 nM, 0.32 nM, 0.064 nM and 0.013 nM were set for each compound), 20 units of DNA-PK kinase, 0.2 μg/μL substrate, 10 μg/μL DNA, 50 μM ATP and 1% DMSO were successively added to each well; • iii. the mixtures were well mixed, centrifuged (1000 rpm, 30 s), and incubated at 37° C. for 60 min; • iv. the reactions were terminated by adding 5 μL of ADP-Glo™ Reagent; the mixtures were well mixed, centrifuged (1000 rpm, 30 s), and incubated at room temperature for 40 min; • v. 10 μL of Kinase Detection Reagent was added; the mixtures were well mixed by shaking, centrifuged (1000 rpm, 30 s), and incubated at room temperature for 30 min; • vi. fluorescence values were measured using a microplate reader (Thermo fisher, Varioskan LUX). IC50 was calculated using GraphPad Prism 8.

Row | Compound | pIC50
29 | CNC(=O)c1cc(C)c(Nc2ncc3c(n2)n(C24CC5CC(CC(O)(C5)C2)C4)c(=O)n3C)cn1 [Compound 15, 5-((9-(3-Hydroxyadamantan-1-yl)-7-methyl-8-oxo-8,9-dihydro-7H-purin-2-yl)amino)-N,4-dimethylpicolinamide] | 8.96
30 | Cc1cc2ncnn2cc1Nc1ncc2c(n1)n(C13CC4CC(C1)C(O)C(C4)C3)c(=O)n2C (stereo not drawn) [Compound 18-2, 9-(4-Hydroxyadamantan-1-yl)-7-methyl-2-((7-methyl-[1,2,4]triazolo[1,5-a]pyridin-6-yl)amino)-7,9-dihydro-8H-purin-8-one] | 9.89
